3 substances from patent US6060451A, “Thrombin inhibitors based on the amino acid sequence of hirudin” (The National Research Council of Canada, priority 1995, dated 2000) can be followed below.

pIC50, pKi: −log10 of the molar value. Several values for one entry are separate records, joined by “and”; a condition that tells them apart may be missing. Equal values may be shown once. Non-standard residues stand in square brackets, D forms with d.

What is called pKi is the Ki on a negative log10 scale, so that one unit is a factor of ten.

Assay [1] relates to venous thrombosis in vena cava. The assay is described as follows: Venous thrombosis model (balloon catheter induced-injury and stasis in vena cava). Format: in vivo, rat. The following applies: rats. Here is the method:
Rats ranging in weight from 350 g-450 g were anaesthetized with urethane [50%] at 1500 mg/kg IP. The abdomen and neck were shaved and prepared for surgery.
An incision was made from the base of the sternum to approximately 10-20 mm up from the penile sheath. Another incision was made across the end of the incision (90 degree) to create a flap to be hemostat open. […] Two sutures were loosely looped around the vein(1) and the vein and artery(2), just posterior to the renal veins and arteries. All other branches coming off dorsally from the vena cava were ligated as well as any other veins which may branch of this vein (approximately 4-6 depending on rat). Two more sutures were looped around the vein(1) and artery and vein(2) at the bifurcation of the femoral vein and artery. The right jugular vein was isolated, for later injection of compound.
An incision in the upper interior leg was made and the femoral vein and artery were exposed. The femoral vein was isolated and two sutures were looped around it. One suture was ligated distally, and the other one was pulled tight (proximal) to stop blood flow through the vessel. A very small incision was made into the vein and a 2F fogarty catheter was inserted. The catheter was fed up the femoral vein to the upper sutures (near the renal veins). At this point, inject the compound via the isolated right jugular vein and wait 1 minute. At 1 minute inflate the fogarty catheter with enough saline to distend the vena cava, but still allowing the catheter to be pulled back down to the point of femoral bifurcation without bursting the vessel. This procedure was repeated 3 times. After the third passage, the catheter was removed and as quickly as possible, the femoral incision was ligated with the proximal suture and the suture which was looped around only the vena cava was ligated to stop return flow and allow thrombus growth and the timer was set for 30 minutes.
At this point, the intestines may be placed back in the body cavity, and moistened with saline if any drying has occurred, and skin kept closed with hemostat. […]

Assay [2] deals with activated partial thromboplastin time. The assay is described as follows: Increase in APTT, bolus plus infusion model. The class given is in vivo, rat. Also on record: Infusion Dose needed to cause 2-4 fold increase in APTT: unit not given here. The following applies: intravenous bolus followed by infusion.
Assay [3] relates to carotid artery thrombosis. The assay is described as follows: Ferric chloride injury-induced thrombosis model in carotid artery. The following applies: rat carotid artery, FeCl3 injury; for Dose to double patency time: control patency time 19 ± 1 min.
The target in assay [4] is T1, thrombin (Homo sapiens, UniProt P00734). The assay is described as follows: Antithrombin activity in vitro, Ki (Table III). Format: biochemical. The following applies: first test where two are given; means for 3-5 observations. On the procedure: The reactions were initiated by addition of the substrate dissolved in 0.1 M Tris-HCl buffer, pH 7.8 to a preincubated solution of enzyme (0.4 or 0.04 nM) and variable concentrations of inhibitor dissolved in the same buffer. Initial velocities were recorded and Ki values were determined graphically by weighted linear regression of Dixon plots in the case of competitive inhibition, or by the method of Baici (Baici, 1981) for hyperbolic inhibition. Fluorogenic assays were conducted using the same conditions and instrument as above operating in the fluorescence mode in the Ratio (λex=383 nm, λem=455 nm). Fluorescence intensities were calibrated with 7-amino-4-methyl coumarin solution of known concentration. The specificity of the synthetic peptides of the present invention for human α-thrombin may also be determined by comparing their relative inhibitory activities towards both human α-thrombin and bovine α-thrombin and trypsin by comparing Ki values obtained in the amidolytic assay of thrombin activity.

The target of assay [5] is T1, thrombin. Nature of the assay: Thrombin time in buffer containing fibrinogen (dTT). Format: biochemical. The following applies: read-out: IC50 dTT (concentration required to double thrombin time). From the text: *Concentration of compound required to double thrombin time in buffer
Another assay has as its system human plasma clotting. Nature of the assay: Human plasma clotting time. Format: biochemical. The following applies: read-out: IC50 plasma clotting time (concentration required to inhibit human plasma clotting time by 50%). Here is the method: Thus, for the determination of prothrombin time, 50 μl of reconstituted citrated normal human plasma (Sigma, St-Louis, Mo.) is mixed with 50 μl of thromboplastin solution at 37° C. in a 400 μl cuvette. […] The clotting time is recorded following recalcification with 100 μl of 25 mM CaCl2. The clotting time in the absence of inhibitor was between 19-22 sec.
The same procedure is adopted for the determination of activated partial thromboplastin time except that reconstituted plasma is activated for 3 minutes with cephalin (Sigma, St-Louis, Mo.).
**Concentration of compound required to inhibit human plasma clotting tim

Another assay concerns platelets. Nature of the assay: Thrombin-induced platelet aggregation. The class given is cell-based. On the procedure: The inhibitory activity of some of the peptides of the present invention toward thrombin is reflected by their ability to inhibit thrombin-mediatedplatelet aggregation as shown in FIG. 2. Platelet rich plasma containing variable concentrations of P79 is treated with thrombin. Platelet aggregation, reflected by increased light transmittance is measured on a Bio Data PAP-4 aggregometer.

For assay [6], the system named is platelet deposition on arterial media. Nature of the assay: Pig angioplasty model, ex vivo platelet deposition on arterial media. The class given is in vivo. On the procedure:
The study investigates the dose range required to inhibit platelet deposition on arterial media and aggregation ex vivo in the pig using a bolus and infusion regimen of the compounds of the invention. The study was carried out according to Lam, J. Y. T. et al., Circulation 84:2, August 1991, 814-820. A brief outline of the protocol follows.
Normal 3-4 month old pigs were used. In all pigs, autologous platelets were labeled with 300-400 μCi ^111 In-tropolone 18-24 hours before angioplasty. The pigs were sedated with 300 mg i.m. ketamine. After inhalation of the ether, the pigs were intubated, mechanically ventilated with room air by a respirator and maintained anesthetized with 0.5% halothane. Immediately after catheter insertion, a single bolus of heparin was administered to animals receiving platelet-inhibitor therapy and their matching controls corresponding to a dose less than 3.1 units/kg/min. Heparin was not administered to animals receiving hirudin or their matching controls.
An 8F balloon dilation catheter was advanced under fluoroscopic control through a right femoral cut down into the left and right common carotid arterial segment between the fifth and fourth vertebrae. Five inflations were performed, 30 seconds each at 6 atm with 60 seconds between inflations. The angiographic lumen diameter before dilation ranged from 5 to 6 mm during dilation, the diameter of the inflated balloon within the artery was not more than 10% greater than the original arterial lumen. […]
The platelet deposition on each dilated artery was calculated from the platelet counts and ^111 In activity on the arterial wall and in the blood obtained. The percentage of radioactivity bound to platelets was determined and the number of platelets per counts per minute was calculated from known blood platelet counts. The number of platelets deposited on the arterial segments per square centimeter was calculated by dividing the arterial segment counts per minute by both the number of platelets per counts per minute and the arterial surface area.

As for heparin [reference compound], the “Dose needed to achieve patency” value in assay [1] was 10-15 U. For the same substance, in assay [2], the “Bolus needed to achieve the same increase in APTT” value is listed as 25 U and the “Infusion needed to achieve the same increase in APTT” value is on record as 0.5 U/kg/min. In assay [3], the “Dose needed to cause a doubling in patency time” value was 200 U/kg.
Take “Ac(D-Phe)-Pro-Arg-(CH2)4 (CO)--[NH--CH2 --CH=CH--CH2 --(CO)]2 -DFEPIPL-OH (Ac-[dF]PR[(CH2)4CO][NHCH2CH:CHCH2CO][NHCH2CH:CHCH2CO]DFEPIPL-OH; numbers in words are those of the source; also: Arg carbonyl bonded to (CH2)4 (non-amide backbone link)) [P184]”: the pKi with thrombin [4] was 8.82. Moreover, the pIC50 is 7.98 with thrombin [5], 7.28 in the assay with human plasma clotting and 8.22 with platelets. The “Minimum Bolus dose needed to achieve patency” value in assay [1] (i.v. bolus) was in the range of 0.5 to 2 mg/kg. In addition, the “Bolus Dose needed to cause 2-4 fold increase in APTT” value in assay [2] was determined as 1 mg/kg. Moreover, the “Infusion Dose needed to cause 2-4 fold increase in APTT” value in assay [2] stood at 125. Also, in assay [6] (four animals), the “Decrease of platelet deposition on arterial media relative to baseline control, mean” value was 61.2%. Moreover, in assay [6] (i.v. bolus 0.2 mg/kg then infusion 0.2 mg/kg/hr, four animals, paired T P=0.0001), the “Platelet deposition after drug infusion, X±SEM” value is reported as 39.8±12.7 % of control. Moreover, the “Platelet deposition after drug infusion, single animals” value in assay [6] (i.v. bolus 0.2 mg/kg then infusion 0.2 mg/kg/hr, mean of three determinations per animal, animals 1-4, listed as BCH-1710) was 31.9 % of control and 23.7 % of control and 3.7 % of control and 84.3 % of control. Besides, the “Dose to double patency time” value in assay [3] lay within 1 to 2 mg/kg.
As for “(D-Phe)-Pro-Arg-(CH2)4 (CO)--[NH(CH2)4 (CO)]2 -DF-(4-thiahomoGlu)-PIPL-TFA salt [BCH-2758]”, at thrombin [4], the negative-log Ki (pKi) is 9.02. Further, the pIC50 is 8.31 on thrombin [5], 7.52 with human plasma clotting and 8.00 in the assay with platelets. Moreover, in assay [3], the “Dose to double patency time” value is listed as 4 mg/kg.
